Patent publication US10919856B2 (priority 2016, dated 2021)
Structures can show the parent of a compound that is named as a salt.

Experiments:
[1] = target: influenza virus neuraminidase (wild-type) (Influenza A virus, UniProt Q9IGQ6); format: biochemical
influenza = details: in vivo; cited from earlier work

influenza virus neuraminidase (wild-type), sequence (Q9IGQ6 whole entry, looked up): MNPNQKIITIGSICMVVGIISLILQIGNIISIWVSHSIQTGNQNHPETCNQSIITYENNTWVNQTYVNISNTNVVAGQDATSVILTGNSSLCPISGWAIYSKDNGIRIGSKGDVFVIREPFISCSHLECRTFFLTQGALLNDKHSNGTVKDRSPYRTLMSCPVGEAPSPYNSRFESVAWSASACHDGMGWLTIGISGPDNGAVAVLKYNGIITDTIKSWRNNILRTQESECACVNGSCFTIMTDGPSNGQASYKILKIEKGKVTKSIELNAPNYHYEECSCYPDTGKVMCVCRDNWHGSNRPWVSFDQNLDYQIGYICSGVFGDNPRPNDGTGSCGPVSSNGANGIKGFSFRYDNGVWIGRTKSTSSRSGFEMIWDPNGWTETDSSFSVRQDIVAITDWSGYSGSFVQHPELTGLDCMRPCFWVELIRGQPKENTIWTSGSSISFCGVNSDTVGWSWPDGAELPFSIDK

SMILES | inhibiting activity on wild-type virus strains [1] | reduction of severity level of influenza symptoms (influenza) | shortening of the state of illness (influenza)
COCCO[C@@H]1CCCN([C@@H]2C=C(C(=O)O)C[C@H](N)[C@H]2NC(C)=O)C1 [Example 1, (3R,4R,5S)-4-acetamido-5-amino-3-((3S)-3-(2-methoxylethoxyl)piperidin)-1-cyclohexene-1-carboxylic acid trifluoroacetate] | perfect inhibiting activities |  | 
COCCO[C@@H]1CCCN([C@@H]2C=C(C(=O)O)C[C@H](NC(=N)N)[C@H]2NC(C)=O)C1 [Example 11, (3R,4R,5S)-4-acetamido-5-guanidino-3-((3S)-(2-methoxylethyoxyl)piperidin)-1-cyclohexene-1-carboxylic acid trifluoroacetate] | perfect inhibiting activities |  | 
CCOC(=O)C1=C[C@@H](OC(CC)CC)[C@H](NC(C)=O)[C@@H](N)C1.O=P(O)(O)O [Oseltamivir phosphate, ethyl (3R,4R,5S)-4-acetamido-5-amino-3-(1-ethylpropoxyl)-1-cyclohexene-1-carboxylate phosphate] |  | 40% | 3.1 days
